Results on 3 compounds are retold here after ChEMBL document CHEMBL4368916, “Design, Synthesis, and Biological Evaluation of Retinoic Acid-Related Orphan Receptor γt (RORγt) Agonist Structure-Based Functionality Switching Approach from In House RORγt Inverse Agonist to RORγt Agonist” (J Med Chem, 2019).

One may read the bioavailability as dose-corrected exposure relative to a reference, in per cent. Low readings indicate little systemic uptake, high ones much systemic uptake. In general, AUC(0-t) refers to exposure summed from dosing to a finite time, without extrapolation to infinity. A low value points to low exposure. As usually defined, the MRT is a mean duration of stay, worked out from the concentration-time curve. For orientation: Cmax means the maximum level reached in the sampled fluid or tissue.

A short description of data set [1]: Oral bioavailability in ICR mouse at 1 mg/kg by LC/MS/MS analysis. Particulars: in vivo. It is filed as ADME, organism-based.
A short description of data set [2]: AUC (0 to 8 hrs) in ICR mouse at 0.1 mg/kg, iv or 1 mg/kg, po by LC/MS/MS analysis. It is filed as ADME, organism-based. To be noted: in vivo.
Another data set has as its target Cytochrome P450 3A4 (Homo sapiens, UniProt P08684). Nature of the data set: Inhibition of CYP3A4 (unknown origin) at 10 uM. It is filed as ADME.
For a further data set, the system named is HepG2. Nature of the data set: Cytotoxicity against human HepG2 cells at 100 uM. It is filed as cell-based. Particulars: hepg2, 100 µM.
Data set [3] is described as follows: MRT in ICR mouse at 0.1 mg/kg, iv or 1 mg/kg, po by LC/MS/MS analysis. Particulars: in vivo. It is filed as ADME, organism-based.
For data set [4], the target named is T1, Nuclear receptor ROR-gamma (Mus musculus) (UniProt P51450).
T1 sequence (whole entry): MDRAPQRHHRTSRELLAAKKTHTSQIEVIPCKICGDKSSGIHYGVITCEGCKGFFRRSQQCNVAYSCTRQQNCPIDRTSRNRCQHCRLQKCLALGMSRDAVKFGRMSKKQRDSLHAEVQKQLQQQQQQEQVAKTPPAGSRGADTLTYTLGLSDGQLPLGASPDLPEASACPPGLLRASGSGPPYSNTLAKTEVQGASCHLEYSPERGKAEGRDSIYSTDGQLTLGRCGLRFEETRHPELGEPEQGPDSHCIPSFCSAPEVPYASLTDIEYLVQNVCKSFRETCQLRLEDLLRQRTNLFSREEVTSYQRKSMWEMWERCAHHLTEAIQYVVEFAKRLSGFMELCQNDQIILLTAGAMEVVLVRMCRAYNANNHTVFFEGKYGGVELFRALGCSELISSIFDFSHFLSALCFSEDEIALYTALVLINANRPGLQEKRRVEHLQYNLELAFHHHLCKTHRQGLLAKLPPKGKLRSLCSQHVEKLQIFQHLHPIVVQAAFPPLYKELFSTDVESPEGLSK
Nature of the data set: Agonist activity at RORgammat in mouse naive CD4+ T cells assessed as induction of IL17 production at 0.1 to 3 uM after 4 days by ELISA. It is filed as cell-based. A general note: ELISA stands for enzyme-linked immunosorbent assay.

Data set [5] in a line: Cmax in ICR mouse at 0.1 mg/kg, iv or 1 mg/kg, po by LC/MS/MS analysis. It is filed as ADME, organism-based. Particulars: in vivo.
In data set [6] the target is T1, Nuclear receptor ROR-gamma (Mus musculus). Nature of the data set: Inverse agonist activity at RORgammat in mouse naive CD4+ T cells assessed as […] of IL17 production at 0.001 to 10 uM after 4 days by ELISA. It is filed as cell-based.

The structures appear in SMILES notation. Active and inactive are the calls of the source. No cut-off for these calls is given here.

Chain of Cytochrome P450 3A4 (P08684 whole entry): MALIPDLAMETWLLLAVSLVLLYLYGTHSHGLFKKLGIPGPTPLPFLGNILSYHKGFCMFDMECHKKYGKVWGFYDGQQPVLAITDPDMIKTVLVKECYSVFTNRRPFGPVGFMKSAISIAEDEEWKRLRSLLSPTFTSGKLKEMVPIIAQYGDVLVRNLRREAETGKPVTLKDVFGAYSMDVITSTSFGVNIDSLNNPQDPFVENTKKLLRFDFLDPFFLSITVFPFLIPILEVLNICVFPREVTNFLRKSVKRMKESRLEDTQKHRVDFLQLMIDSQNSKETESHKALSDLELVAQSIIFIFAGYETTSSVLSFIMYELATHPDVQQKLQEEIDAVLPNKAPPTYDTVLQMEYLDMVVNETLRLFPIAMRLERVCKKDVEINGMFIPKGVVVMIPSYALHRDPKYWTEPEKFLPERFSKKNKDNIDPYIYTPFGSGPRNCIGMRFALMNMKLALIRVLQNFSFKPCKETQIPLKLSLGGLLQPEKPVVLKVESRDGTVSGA

Take `CCOc1ccccc1CN1CCc2cc(NC(=O)[C@H]3c4ccc(OC)nc4CCN3C(=O)CCCC(=O)O)ccc21`: in data set [1], the bioavailability turned out to be 19%. This compound returned an AUC(0-t) in data set [2] of 1720 ng·h/mL. At Cytochrome P450 3A4, the “inhibition (INH)” value was “Not Active”. The Activity entry in the data set on HepG2 is “Non-Toxic”; in data set [4], “Dose-dependent effect”. The same compound came in with a mean residence time MRT in data set [3] of 4.1 h. In data set [5], this compound gave a Cmax of 227 ng/mL.
As for `COc1ccc2c(n1)CCN(C(=O)CCCC(=O)O)[C@H]2C(=O)Nc1cc(F)c2c(c1)CCC2(C)C`, in data set [6], the result was Active.
`CCOc1ccccc1CN1CCc2cc(NC(=O)[C@H]3c4ccc(OC)nc4CCN3C(C)=O)ccc21`: the Activity result in data set [4] is “Dose-dependent effect”.
